Read-outs that look alike come from different tables or passages of the source.

Holding throughout (format): cell-based
The subject of one test is LNCaP/AR cells. The experiment in a line: Inhibition of the proliferation of LNCap/AR cells (CCK-8). The settings on record: LNCaP/AR cells, 6 days culture, CCK-8, read-out: LNCap/AR IC50. Put shortly:
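LNCaP/AR cells (1000/well, RPMI1640 + 10% FBS) were treated for 6 days at 37 °C with 9-point 3-fold dilutions from 10 μM final, 0.1% DMSO, in duplicate. Viability was read by CCK-8 absorbance at 450 nm after 1 h, and IC50 came from a dose-response-inhibition fit.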

The target of the next test is T1, BRD4 (Homo sapiens, UniProt O60885).
T1 construct: CWR22RV1 cells were subcultured in cell culture media; endogenous in cells; host or cells: CWR22RV1 cells
Description: Down-regulation/degradation of BRD4 determined by Western blot in CWR22RV1 cells. The conditions noted are these: concentration 100 nM, 24 h. On the procedure: (§1) The Down-Regulation on the Protein Expression of Androgen Receptors AR and Brd4 Determined by Western Blot CWR22RV1 cells (National Collection of Authenticated Cell Cultures. TCHu100) FBS (Gibco, Cat. No. 10099-141) 0.01M PBS (Biosharp. Cat. No. 162262) RIPM1640 (Hyclone, Cat. No. 308090.01) Penicillin-Streptomycin (Hyclone. Cat. No. SV30010) DMSO (Sigma. Cat. No. D5879) Centrifuge tube, 15 ml (Excell Bio. Cat. No. CS015-0001) Cell culture plate (Excell Bio. Cat. No. CS016-0128) 6-well cell culture cluster (Corning, Cat. No. 3516) RIPA lysate buffer (Beyotime, Cat. No. P0013B) Protein loading buffer (Beyotime, Cat. No. P0015L) CA protein assay kit (Beyotime, Cat. No. P0012) SDS-PAGE gel preparation kit (Chengdu Baihe Technology Co., Ltd. Cat. No. PG112) Anti-β-tubulin mouse mAb (Zen Bioscience, Cat. No. 200608) Androgen Receptor ([…]) XP Rabbit mAb (CST. Cat. No. 5153) Anti-cMyc(D3N8F) Rabbit mAb (CST. Cat. No. 13987) Anti-BRD4(E2A7X) rabbit mAb (CST, Cat. No. 13440) Peroxidase Affinipure(HRP) Goat Anti-Mouse IgG (Zen Bioscience, Cat. No. 511103) Peroxidase Affinipure(HRP) Goat Anti-Rabbit IgG (Zen Bioscience, Cat. No. 511203) TBST (Biosharp. Cat. No. B[…]) ECL chemiluminescence kit (Beyotime, Cat. No. […]1 cells were subcultured in cell culture media, and then the cells in good growth condition were seeded in a 6-well plate at 2 ml/well (1×10^6 cells/well), and cultured overnight in a 37° C., 5% CO2 cell incubator. 2) The drug was prepared as a 10 mM stock solution with dimethyl sulfoxide (DMSO). […] The plate was gently tapped to thoroughly mix. In addition, the experiment included negative control wells (containing equal amount of DMSO) and positive control wells. 3) After culturing 24 hi, the cells were lysed with RIPA cell lysate, and the protein was extracted. […] The first antibody (Androgen Receptor ([…]) XP Rabbit mAb. Anti-cMyc(D3N8F) Rabbit mAb, Anti-BRD4(E2A7X) rabbit mAb and Anti-β-Tubulin Mouse mAb) was added and incubated overnight at 4° C. The membrane was rinsed with TBST solution three times, 10 min for each time. The secondary antibody (horseradish peroxidase labeled goat anti mouse IgG) was added and incubated at room temperature for 2 h, and then the membrane was washed with TBST solution three times, 10 m for each time. Finally. ECL chemiluminescence solution was added, and then photos were taken with automatic chemiluminescence instrument to collect pictures for analysis.
(In general: In western blotting, separated proteins are transferred to a membrane and probed.)

In the next test the test system is Androgen receptor (AR). The experiment in a line: Down-regulation/degradation of AR determined by Western blot in CWR22RV1 cells. The conditions noted are these: concentration 100 nM, 24 h. On the procedure: as §1
A further test concerns 22RV1 cells. Description: Inhibition of the proliferation of drug-resistant prostate cancer cell 22RV1 (CCK-8). The settings on record: 22RV1 cells (enzalutamide-resistant), same method. The essentials:
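22RV1 cells, 1000/well in RPMI1640 with 10% FBS, treated in duplicate with 9-point 3-fold dilutions from 10 μM (0.1% DMSO final). After 6 days at 37 °C, CCK-8 added for 1 h and OD450 read. IC50 from dose-response inhibition fit.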

`Cc1ccc(-c2c(C)noc2C)cc1N(CCCOC1CN(c2cc3c(cc2F)C(=O)N(C2CCC(=O)NC2=O)C3=O)C1)c1ccc(C2(C#N)CC2)cc1` (stereo not shown) [Compound 120, 1-(4-((5-(3,5-dimethylisoxazol-4-yl)-2-methylphenyl)(3-((1-(2-(2,6-dioxopiperidin-3-yl)-6-fluoro-1,3-dioxoisoindol-5-yl)azetidin-3-yl)oxy)propyl)amino)phenyl)cyclopropane-1-carbonitrile]: the IC50 in the test on LNCaP/AR cells (144 h) is 101 to 500 nM; with 22RV1 cells (Homo sapiens), below 100 nM. Also, the “BRD4 (% degradation)” value at BRD4 is on record as “B (79%-50% of the target protein was degraded)”. The “AR (% degradation)” value in the test with Androgen receptor (AR) is listed as “D (<20% of the target protein was degraded)”.
In the case of `Cc1ccc(-c2c(C)noc2C)cc1N(CCCOC1CN(c2cc3c(cc2F)CN(C2CCC(=O)NC2=O)C3=O)C1)c1ccc(C2(C#N)CC2)cc1` (stereo not shown) [Compound 123, 1-(4-((5-(3,5-dimethylisoxazol-4-yl)-2-methylphenyl)(3-((1-(2-(2,6-dioxopiperidin-3-yl)-6-fluoro-3-oxoisoindolin-5-yl)azetidin-3-yl)oxy)propyl)amino)phenyl)cyclopropane-1-nitrile], the IC50 with LNCaP/AR cells (144 h) and in the test on 22RV1 cells (Homo sapiens) was 501 to 2000 nM throughout. Further, on BRD4, the “BRD4 (% degradation)” value is reported as “C (49%-20% of the target protein was degraded)”. For the same molecule, the “AR (% degradation)” value in the test with Androgen receptor (AR) is recorded as “D (<20% of the target protein was degraded)”.
`Cc1ccc(-c2c(C)noc2C)cc1N(CCCOC1CN(c2cc3c(cc2F)C(=O)N(C2CCC(=O)NC2=O)C3)C1)c1ccc(C2(C#N)CC2)cc1` (stereo not shown) [Compound 124, 1-(4-((5-(3,5-dimethylisoxazol-4-yl)-2-methylphenyl)(3-((1-(2-(2,6-dioxopiperidin-3-yl)-6-fluoro-1-oxoisoindolin-5-yl)azetidin-3-yl)oxy)propyl)amino)phenyl)cyclopropane-1-nitrile]: the IC50 in the test with LNCaP/AR cells (144 h) was 101 to 500 nM; in the test with 22RV1 cells (Homo sapiens) it was below 100 nM. The “BRD4 (% degradation)” value at BRD4 was “B (79%-50% of the target protein was degraded)”. The “AR (% degradation)” value in the test on Androgen receptor (AR) was “B (79%-50% of the target protein was degraded)”.
As for `Cc1ccc(-c2c(C)noc2C)cc1N(CC1CCN(c2cc3c(cc2F)CN(C2CCC(=O)NC2=O)C3=O)CC1)c1ccc(C2(C#N)CC2)cc1` (stereo not shown) [Compound 127, 1-(4-((5-(3,5-dimethylisoxazol-4-yl)-2-methylphenyl)((1-(2-(2,6-dioxopiperidin-3-yl)-6-fluoro-3-oxoisoindolin-5-yl)piperidin-4-yl)methyl)amino)phenyl)cyclopropane-1-nitrile], the IC50 with LNCaP/AR cells (144 h) and with 22RV1 cells (Homo sapiens) was 101 to 500 nM throughout. The “BRD4 (% degradation)” value on BRD4 is “B (79%-50% of the target protein was degraded)”. Further, the “AR (% degradation)” value with Androgen receptor (AR) was “D (<20% of the target protein was degraded)”.
For `Cc1ccc(-c2c(C)noc2C)cc1N(CC1CCN(c2cc3c(cc2F)C(=O)N(C2CCC(=O)NC2=O)C3)CC1)c1ccc(C2(C#N)CC2)cc1` (stereo not shown) [Compound 128, 1-(4-((5-(3,5-dimethylisoxazol-4-yl)-2-methylphenyl)((1-(2-(2,6-dioxopiperidin-3-yl)-6-fluoro-1-oxoisoindolin-5-yl)piperidin-4-yl)methyl)amino)phenyl)cyclopropane-1-nitrile], the values for the IC50 in the test on LNCaP/AR cells (144 h) and with 22RV1 cells (Homo sapiens) were 501 to 2000 nM and 101 to 500 nM, respectively. Moreover, the “BRD4 (% degradation)” value at BRD4 is “C (49%-20% of the target protein was degraded)”. Moreover, the “AR (% degradation)” value in the test with Androgen receptor (AR) was “D (<20% of the target protein was degraded)”.
For `Cc1ccc(-c2c(C)noc2C)cc1N(CCC1CN(c2cc3c(cc2F)C(=O)N(C2CCC(=O)NC2=O)C3=O)C1)c1ccc(C2(C#N)CC2)cc1` (stereo not shown) [Compound 129, 1-(4-((5-(3,5-Dimethylisoxazol-4-yl)-2-methylphenyl)(2-(1-(2-(2,6-dioxopiperidin-3-yl)-6-fluoro-1,3-dioxoisoindolin-5-yl)azetidin-3-yl)ethyl)amino)phenyl)cyclopropane-1-carbonitrile], the IC50 with LNCaP/AR cells (144 h) was 101 to 500 nM; in the test with 22RV1 cells (Homo sapiens), below 100 nM. In addition, the “BRD4 (% degradation)” value on BRD4 was “B (79%-50% of the target protein was degraded)”. Besides, the “AR (% degradation)” value in the test on Androgen receptor (AR) is on record as “C (49%-20% of the target protein was degraded)”.
Take `Cc1ccc(-c2c(C)noc2C)cc1N(C[C@H]1CC[C@H](CNc2cc3c(cc2F)C(=O)N(C2CCC(=O)NC2=O)C3=O)CC1)c1ccc(C#N)c(Cl)c1` (stereo partly shown) [Compound 131]: the IC50 in the test on LNCaP/AR cells and in the test on 22RV1 cells was below 100 nM each time. The “BRD4 (% degradation)” value on BRD4 is reported as “A (>80% of the target protein was degraded)”. In the test with Androgen receptor (AR), the “AR (% degradation)” value is “C (49%-20% of the target protein was degraded)”.
With `Cc1ccc(-c2c(C)noc2C)cc1N(C[C@H]1CC[C@H](CNc2cc3c(cc2F)C(=O)N(C2CCC(=O)NC2=O)C3)CC1)c1ccc(C#N)c(Cl)c1` (stereo partly shown) [Compound 135], the IC50 in the test on LNCaP/AR cells and in the test with 22RV1 cells was below 100 nM throughout. For the same molecule, the “BRD4 (% degradation)” value on BRD4 was “A (>80% of the target protein was degraded)”. In addition, in the test with Androgen receptor (AR), the “AR (% degradation)” value is on record as “C (49%-20% of the target protein was degraded)”.
Take `Cc1ccc(-c2c(C)noc2C)cc1N(CC1(COC2CN(c3ccc4c(c3)C(=O)N(C3CCC(=O)NC3=O)C4=O)C2)CC1)c1ccc(C2(C#N)CC2)cc1` (stereo not shown) [Compound 137, 1-(4-((5-(3,5-Dimethylisoxazol-4-yl)-2-methylphenyl)((1-(((1-(2-(2,6-dioxopiperidin-3-yl)-1,3-dioxoisoindolin-5-yl)azetidin-3-yl)oxy)methyl)cyclopropyl)methyl)amino)phenyl)cyclopropane-1-nitrile]: the IC50 in the test with LNCaP/AR cells (144 h) and in the test with 22RV1 cells (Homo sapiens) was above 2000 nM throughout. Further, the “BRD4 (% degradation)” value at BRD4 is listed as “B (79%-50% of the target protein was degraded)”. Further, the “AR (% degradation)” value in the test on Androgen receptor (AR) is “C (49%-20% of the target protein was degraded)”.
For the molecule `Cc1ccc(-c2c(C)noc2C)cc1N(CCCOC1(C)CN(c2ccc3c(c2)C(=O)N(C2CCC(=O)NC2=O)C3=O)C1)c1ccc(C2(C#N)CC2)cc1` (stereo not shown) [Compound 140], the IC50 with LNCaP/AR cells (144 h) is 501 to 2000 nM; in the test with 22RV1 cells (Homo sapiens) it was 101 to 500 nM. The “BRD4 (% degradation)” value on BRD4 was “C (49%-20% of the target protein was degraded)”. The “AR (% degradation)” value in the test on Androgen receptor (AR) is “D (<20% of the target protein was degraded)”.
For `Cc1ccc(-c2c(C)noc2C)cc1N(C[C@H]1CC[C@H](CNc2ccc3c(c2)C(=O)N(C2CCC(=O)NC2=O)C3=O)CC1)c1ccc(C2(C#N)CC2)cc1` (stereo partly shown) [Compound 149], the IC50 in the test on LNCaP/AR cells (144 h) and in the test on 22RV1 cells (Homo sapiens) was below 100 nM each time. Besides, on BRD4, the “BRD4 (% degradation)” value is on record as “A (>80% of the target protein was degraded)”. Also, the “AR (% degradation)” value in the test with Androgen receptor (AR) is listed as “A (>80% of the target protein was degraded)”.
With `Cc1ccc(-c2c(C)noc2C)cc1N(CC1CN(C2CN(c3cc4c(cc3F)C(=O)N(C3CCC(=O)NC3=O)C4)C2)C1)c1ccc(C2(C#N)CC2)cc1` (stereo not shown) [Compound 157], the IC50 with LNCaP/AR cells (144 h) and in the test on 22RV1 cells (Homo sapiens) was below 100 nM in each case. For the same molecule, at BRD4, the “BRD4 (% degradation)” value is “A (>80% of the target protein was degraded)”. Moreover, the “AR (% degradation)” value in the test with Androgen receptor (AR) is “B (79%-50% of the target protein was degraded)”.
As for `Cc1ccc(-c2c(C)noc2C)cc1N(CC1CCN(C2CN(c3cc4c(cc3F)CN(C3CCC(=O)NC3=O)C4=O)C2)CC1)c1ccc(C2(C#N)CC2)cc1` (stereo not shown) [Compound 159], the IC50 in the test with LNCaP/AR cells (144 h) and in the test with 22RV1 cells (Homo sapiens) was below 100 nM in each case. Also, the “BRD4 (% degradation)” value on BRD4 is listed as “B (79%-50% of the target protein was degraded)”. The “AR (% degradation)” value with Androgen receptor (AR) was “C (49%-20% of the target protein was degraded)”.
